Source: US20110129935A1, “PROTEIN STABILITY ASSAY USING A FLUORESCENT REPORTER OF PROTEIN FOLDING” (James Cook University, priority 2008, published 2011)

Columns and labels:
[1] = molecular target: CAT-GFP (Escherichia coli, UniProt P62577); assay type: binding; conditions: 10 mM chloramphenicol, 9.2 mM ampicillin or 6.4% ethanol
Method: (§1) Protein samples (6 or 10 μl) were incubated along a temperature gradient in a thermocycler for 5 minutes or 30 minutes for the determination of Tagg, or at a constant temperature and increasing times to determine kagg. After heat treatment and centrifugation as described above, 3 or 5 μl of supernatant were transferred to a black 96-well plate (Nunclon, Nunc, Rochester, N.Y., USA), diluted with 47 or 50 μl respectively of Buffer A or Buffer B and the fluorescent Ffold was determined with a fluorescence plate reader (Victor V Wallace, Perkin-Elmer, Melbourne VIC, Australia). The excitation and emission filters were set at 355 nm and 535 nm respectively, with 40 nm band-width. Data were normalized against the fluorescence of an untreated sample.
(§2) To determine the effect of ligands, CAT-GFP reaction premix contained 9.2 μl of CAT-GFP (71 μM in Buffer A), 51.6 μl of Buffer A and 4.2 μl of either 50 mg/ml chloramphenicol in ethanol or 50 mg/ml ampicillin in water. GK-GFP reaction premix contained 9.3 μl of GK-GFP (70 μM), 49.20 of Buffer A and 6.5 μl of either Buffer A+10 mM glycerol or Buffer A+10 mM glucose. Reaction volume was 10 μl and 5 μl of the soluble fraction was analysed by plate reader after centrifugation.
The S method was then further developed to evaluate the effect of ligand binding and additives in a rapid throughput format for the three test proteins using replicates of single timepoints (FIG. 6a-6c). […] Indeed, the temperature used to test for chloramphenicol binding had to be kept quite low and for a short time as GFP would have been destabilized in more stringent conditions. […] This non-specific stabilization could also be attributed to the low stringency of the conditions.

[2] = molecular target: Tus-GFP (Escherichia coli, UniProt P16525, Q80R); assay: Isothermal aggregation of Tus-GFP with additives (kagg, S method); design: species or system E. coli; conditions: 46° C., 25% glycerol in 0.5× Buffer B
Method: as §1, with “sample. […]” for “sample.”
The kagg (s^−1) measured the loss of fluorescence of the soluble fraction of proteins over time. The kagg values were determined by the exponential fit of normalized Ffold as follows:
To evaluate the kinetic parameters of the system, a 96-well plate format was designed that enabled measurement of the residual Ffold of Tus-GFP over time. Isothermal aggregation reactions were monitored at 46° C. to quantify the effect of stabilizing or destabilizing salts and additives on the kagg of Tus-GFP (FIG. 3). […]

[3] = molecular target: GK-GFP (Escherichia coli, UniProt P0A6F3); assay: Rapid throughput S method, Ffold of GK-GFP with ligands or other proteins; assay type: binding, E. coli; conditions: 1 mM glycerol in presence of BSA 15 μM
Chain of GK-GFP (P0A6F3 other isoform, or with tags, fused parts or gaps): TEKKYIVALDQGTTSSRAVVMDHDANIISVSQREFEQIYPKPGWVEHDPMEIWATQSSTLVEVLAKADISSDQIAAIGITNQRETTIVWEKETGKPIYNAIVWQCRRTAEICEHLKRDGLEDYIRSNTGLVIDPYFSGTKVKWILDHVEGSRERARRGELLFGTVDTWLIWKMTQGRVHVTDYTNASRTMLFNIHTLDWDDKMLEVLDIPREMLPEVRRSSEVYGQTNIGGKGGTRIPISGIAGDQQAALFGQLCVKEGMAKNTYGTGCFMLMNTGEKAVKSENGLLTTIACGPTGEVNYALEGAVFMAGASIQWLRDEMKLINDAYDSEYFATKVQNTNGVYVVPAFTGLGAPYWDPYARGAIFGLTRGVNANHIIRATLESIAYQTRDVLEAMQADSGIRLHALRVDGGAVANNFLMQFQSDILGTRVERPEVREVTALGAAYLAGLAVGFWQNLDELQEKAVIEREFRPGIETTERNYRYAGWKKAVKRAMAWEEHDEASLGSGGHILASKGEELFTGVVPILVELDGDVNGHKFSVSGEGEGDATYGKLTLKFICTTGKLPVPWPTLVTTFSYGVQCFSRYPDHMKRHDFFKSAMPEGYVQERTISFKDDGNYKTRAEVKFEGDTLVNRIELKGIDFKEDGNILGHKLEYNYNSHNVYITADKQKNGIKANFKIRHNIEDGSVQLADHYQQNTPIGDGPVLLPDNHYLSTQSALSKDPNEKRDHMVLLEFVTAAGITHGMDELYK
Method: as §1
as §2, with “centrifugation. […]” for “centrifugation.”

**Q.** For `CC1(C)S[C@@H]2[C@H](NC(=O)[C@H](N)c3ccccc3)C(=O)N2[C@H]1C(=O)O` [ampicillin], which “stabilization of CAT-GFP (Ffold)” value [1] is on record?
**A.** The value was “moderate stabilization”.

**Q.** With `O=C(N[C@H](CO)[C@H](O)c1ccc([N+](=O)[O-])cc1)C(Cl)Cl` [chloramphenicol] as the compound, how does the “stabilization of CAT-GFP (Ffold)” value [1] read?
**A.** Its value is “stabilizing”.

**Q.** How did the “stabilization of CAT-GFP (Ffold)” value [1] turn out when `CCO` [ethanol] was run?
**A.** Its value is “almost the same stabilizing effect”.

**Q.** For `OCC(O)CO` [glycerol], which “stabilization effect on Tus-GFP (kagg)” value [2] is on record?
**A.** Its value is “largest stabilization effect”.

**Q.** What about the “stabilization of GK-GFP (Ffold)” value [3] of the same compound?
**A.** Its value is “almost completely stabilized”.
